Data published in patent US20260217691A1, “FOXM1 INHIBITORS AND THEIR USE IN TREATING CANCERS” (THE BOARD OF TRUSTEES OF THE UNIVERSITY OF ILLINOIS, priority 2022, published 2026).

Experiments:
[1] = tested on: canonical FOXM1 target genes; test: Real-time PCR of canonical FOXM1 target genes in primary AML mononuclear cells treated ex vivo; format: cell-based, human; settings: primary AML samples (n=5), 5 μM, 24 h
HCC-1143 cells = settings: HCC-1143 FOXM1-KD, doxorubicin
Procedure: FIG. 17. […] (A) Prostate cancer (22RV1 and LNCaP) cells were treated with indicated concentrations of paclitaxel alone or in combination with STL001 for 24 hrs. (B) Tamoxifen resistance MCF-7 breast cancer cells (TAM-R) were treated with indicated concentrations of Tamoxifen alone or in combination with STL001 for 24 hrs. In all cases, total protein samples were obtained from cells immediately after treatment and analyzed for FOXM1, cleaved caspase-3 levels via immunoblotting, β-actin was used as internal loading control (n=3). (C) Percent (%) dead cells in TAM-R cells treated with indicated concentrations of Tamoxifen alone or in combination with STL001 for 24 hrs. […] (F) HCC 143 cells with stable shRNA-mediated FOXM1 knockdown (KD) were treated with doxorubicin alone or in combination with STL001 for 24 hrs and compared to parental cells under the same treatment conditions. In all cases, total protein samples were obtained from cells immediately after treatment and analyzed for FOXM1, cleaved caspase-3 levels via immunoblotting, β-actin was used as internal loading control (n=3).
Stable FOXM1-expression knockdown in cancer cell: Cells were seeded on commercially available 12-well tissue culture plates to achieve ~40% confluency. […] Transduced cells were selected by their cultivation with puromycin (1.0 μg/mL) for 10 days and then maintained without puromycin as described above.

FOXM1 = target: T1, FOXM1 (Homo sapiens, UniProt Q08050); test: FOXM1 protein levels by immunoblotting in solid cancer cell lines
T1 sequence (Q08050 1-763): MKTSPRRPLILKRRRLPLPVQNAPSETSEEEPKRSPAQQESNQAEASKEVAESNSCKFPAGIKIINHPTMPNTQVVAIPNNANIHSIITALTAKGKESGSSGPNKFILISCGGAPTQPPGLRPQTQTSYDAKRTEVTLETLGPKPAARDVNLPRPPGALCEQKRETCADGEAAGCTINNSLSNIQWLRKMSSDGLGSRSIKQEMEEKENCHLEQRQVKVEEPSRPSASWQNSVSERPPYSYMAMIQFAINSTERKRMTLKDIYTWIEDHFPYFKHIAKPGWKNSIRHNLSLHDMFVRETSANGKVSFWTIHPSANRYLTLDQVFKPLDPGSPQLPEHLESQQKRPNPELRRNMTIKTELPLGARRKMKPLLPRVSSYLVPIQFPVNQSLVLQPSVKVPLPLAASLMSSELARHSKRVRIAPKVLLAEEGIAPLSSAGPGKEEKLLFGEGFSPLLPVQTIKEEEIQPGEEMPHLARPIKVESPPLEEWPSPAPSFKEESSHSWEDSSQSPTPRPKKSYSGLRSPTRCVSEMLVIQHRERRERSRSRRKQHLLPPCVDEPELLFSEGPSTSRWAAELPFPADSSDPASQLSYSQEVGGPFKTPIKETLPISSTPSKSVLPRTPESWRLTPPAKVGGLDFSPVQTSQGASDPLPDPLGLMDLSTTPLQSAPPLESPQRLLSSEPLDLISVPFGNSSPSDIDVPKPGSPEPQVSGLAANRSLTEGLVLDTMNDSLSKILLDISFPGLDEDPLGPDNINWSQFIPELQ
Procedure: Cell culture: Human cell lines LNCaP and 22Rv1 (human prostate carcinoma), OVCAR8 and ES-2 (High-grade serous ovarian cancer, HGSOC), HCT-116 and HCT-FET (human colorectal carcinoma), HCC-1143 (triple negative breast cancer (TNBC), TAMR (Tamoxifen resistant MCF7) human breast cancer, were provided from various investigators. LNCaP and 22Rv1 cell lines were cultured in RPMI-1640 with 2 mM L-Glutamine (Gibco; Thermo Fisher Scientific, Waltham, MA, USA). HCC-1143 cell lines were cultured in Iscove's Modified Dulbecco Medium (IMDM) with 2 mM L-Glutamine (Gibco; Thermo Fisher Scientific). OVCAR-8, ES-2, HCT-116, and HCT-FET cell lines were cultured in Dulbecco's Modified Eagle Medium (DMEM) with 4.5 g/L glucose and 4 mM L-Glutamine (Gibco; Thermo Fisher Scientific). For all cell lines, the growth media was supplemented with 10% Foetal Bovine Serum (FBS), penicillin (100 U/mL), and 100 μg/mL streptomycin (Gibco; Thermo Fisher Scientific). TAMR cells were routinely cultured in DMEM/F12 medium without phenol red (Gibco; Thermo Fisher Scientific), containing 1% charcoal-striped FBS, 2.5 mM L-Glutamine (Thermo Fisher Scientific), 6 ng/mL insulin (Millipore Sigma) and 50 nM 4-hydroxytamoxifen (4-OHT; Millipore Sigma). All cell lines were grown and maintained at 37° C. in a humidified incubator with 5% CO2. Sub-confluent cultures (70-80%) were split 1:5 using 0.25% Trypsin/EDTA (Millipore Sigma).
Drug treatment of cultured cells: After harvesting, cells were counted in presence of Trypan Blue (Thermo Fisher Scientific) and seeded onto tissue culture plates to achieve ~50% confluency. The next day, treatment of cells was performed by aspirating the nonadherent cells and growth medium and replacing it with the fresh one containing selected concentrations of drugs. For Tamoxifen based studies, the nonadherent cells and growth media was aspirated and replaced with the DMEM supplemented with 4.5 g/L glucose and 4 mM L-Glutamine, 10% FBS, penicillin (100 U/mL), 100 μg/mL streptomycin, 10 nM estrogen, and selected concentrations of drugs. […] Post-treatment at selected times, the cells were harvested, washed with ice-cold PBS and used for protein or RNA purification as described below.
Protein immunoblotting: Total protein was extracted using ice-cold radio-immunoprecipitation assay (RIPA) buffer (Millipore Sigma) supplemented with Halt protease- and phosphatise-inhibitor cocktails (Fisher Scientific), 2 mM sodium orthovanadate (New England Biolabs, Inc., USA), and 5 mM sodium fluoride (Millipore Sigma) according to the manufacturer's protocol. Protein content in each sample was estimated using Bio-Rad Protein Assay (Bio-Rad, USA). Equal amounts of protein (20-30 μg) were separated on hand-cast SDS/PAGE (6-12%) mini-protein gels and transferred to 0.2 μm Immobilon-Psq polyvinylidene difluoride (PVDF) transfer membrane (Millipore Sigma). Membranes were blocked with 4% bovine serum albumin (BSA; Millipore Sigma) in TRIS-buffered saline (TBS) with 0.1% Tween-20 (TBS-T, Thermo Fisher Scientific) and probed overnight at 4° C. with the primary antibodies (FOXM1, Cell Signaling Technology (CST), Inc., USA; Cleaved Caspase-3, CST; β-actin, Thermo Fisher Scientific) diluted according to the manufacturer's protocol. […] After incubating membranes with the secondary antibodies, the membranes were then washed three times for 10 min each with TBST. Protein bands were developed using SuperSignal™ West Pico PLUS Chemiluminescent Substrate (Thermo Fisher Scientific) and detected using ChemiDoc Imaging System (Bio-Rad).

SMILES: O=C(Oc1cccc(-c2ccn(-c3nc(Nc4ccccc4)nc(N4CCOCC4)n3)n2)c1)c1ccco1 [STL001]
- expression of FOXM1 transcriptional targets AURKB and CDC25B [1]: significantly suppressed expression
- expression of PLK1 and FOXM1 [1]: downregulation
- sensitization effect in FOXM1 deficient cells (HCC-1143 cells): absent
- FOXM1 level in combination with cisplatin or doxorubicin (FOXM1; HCC-1143): efficiently prevents cisplatin or doxorubicin chemotherapy induced FOXM1 upregulation
- FOXM1 levels in combination with 5′FU (FOXM1; HCT-116 and HCT-FET): remarkably decreased 5′FU-induced FOXM1 levels
- concentration giving reduction of cellular levels of FOXM1 protein (FOXM1; OVCAR-8, ES-2, HCT-116, HCT-FET, TAM-R, HCC-1143, 22RV1, LNCaP, tested at 1, 5, 10 μM): 1 µM
- FOXM1 protein levels in combination with doxorubicin (FOXM1; OVCAR-8, ES-2, 24 hrs): efficiently prevented FOXM1 activation
- FOXM1 level in combination with tamoxifen (FOXM1; TAMR cells): efficiently prevents tamoxifen induced FOXM1 upregulation
- FOXM1 expression (FOXM1; breast, colorectal, esophageal and ovarian cancer cells): demonstrably lowers FOXM1 expression
- efficiency in reducing cellular FOXM1 activity compared to STL427944 (FOXM1; solid cancer cell lines): ~ 25 times
